This note sets out measurements from patent US12502380B2, “MrgprX2 antagonists for the treatment of inflammatory disorders” (Dermira, Inc., priority 2019, dated 2025).

This assay deals with T1, Human MrgprX2 (Homo sapiens, UniProt Q96LB1).
T1 construct: expressed in transfected cells
T1 sequence (Q96LB1 1-330): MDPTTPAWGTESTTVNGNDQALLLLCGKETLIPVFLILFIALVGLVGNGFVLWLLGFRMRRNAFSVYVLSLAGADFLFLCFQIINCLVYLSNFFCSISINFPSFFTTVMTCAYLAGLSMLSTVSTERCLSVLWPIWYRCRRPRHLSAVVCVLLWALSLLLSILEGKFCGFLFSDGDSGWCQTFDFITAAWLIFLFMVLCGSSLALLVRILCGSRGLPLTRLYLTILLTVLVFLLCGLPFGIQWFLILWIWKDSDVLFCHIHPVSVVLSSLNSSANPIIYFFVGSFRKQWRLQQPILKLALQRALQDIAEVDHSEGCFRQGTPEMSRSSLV
Put plainly: Human MrgprX2 antagonist FLIPR intracellular calcium mobilization assay. Type of assay: cell-based. The conditions noted are these: antagonist activity, recombinant hMrgpMRGPRX2 expressing cells, read-out: Human MrgprX2 Antagonist pIC50 (converted). An outline of the steps:
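Antagonist activity was read as inhibition of intracellular calcium mobilization (FLIPR) in recombinant cells expressing human MrgprX2. Potency was also checked in LAD-2 human mast cells with endogenous receptor, and orthologue activity in cells expressing mouse MrgprB2, mouse MrgprA1, and gerbil, Chinese hamster and cynomolgus orthologues.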
On the technique in general: A change in cytosolic calcium serves as a functional read-out for many receptors and channels.

`CC1(C(=O)Nc2ncc(Cc3cc(F)cc(F)c3)s2)CCOCC1` [Compound E044]: the IC50 was 15.8 nM.

As for `CC1(C(=O)Nc2ncc(Cc3ccccc3F)s2)CCN(S(C)(=O)=O)CC1` [Compound E060, N-[5-[(2-fluorophenyl)methyl]thiazol-2-yl]-4-methyl-1-methylsulfonyl-piperidine-4-carboxamide], the IC50 is 2510 nM.

Take `CC1(C(=O)Nc2ncc(Cc3ccc(F)c(F)c3)s2)CCOCC1` [Compound E045]: the IC50 was 158 nM.

Regarding `C[C@H](O)CN(C)C(=O)Nc1ncc(Oc2cccc(F)c2)s1` [Compound E152], the IC50 is 1.58 nM.

As for `CC(C)C(=O)Nc1ncc(N(C)c2ccccc2)s1` [Compound E073], the IC50 was 1580 nM.

With `CC(C)NC(=O)c1ncc(Cc2cccc(F)c2)s1` [Compound E217, 5-[(3-fluorophenyl)methyl]-N-isopropyl-thiazole-2-carboxamide], the IC50 was 2000 nM.

In the case of `CN1CCC[C@@H]1C(=O)Nc1ncc(Oc2ccc(C#N)cc2)s1` [Compound E087, (2R)—N-[5-(4-cyanophenoxy)thiazol-2-yl]-1-methyl-pyrrolidine-2-carboxamide], the IC50 was 2510 nM.

`C[C@]1(C(=O)Nc2ncc(Cc3cccc(F)c3)s2)CCOC1` (single isomer, unassigned) [Compound E049, N-[5-[(3-fluorophenyl)methyl]thiazol-2-yl]-3-methyl-tetrahydrofuran-3-carboxamide]: the IC50 is 200 nM.

As to `CC(F)(F)C(=O)Nc1ncc(Cc2ccccc2F)s1` [Compound E022], the IC50 is 5010 nM.

Regarding `CN(C[C@H](O)C(F)(F)F)C(=O)Nc1ncc(Cc2cccc(F)c2)s1` [Compound E109], the IC50 is 25.1 nM.

As to `O=C(CN1CCCCC1)Nc1ncc(Cc2ccccc2F)s1` [Compound E013], the IC50 was 398 nM.

With `C[C@H](O)CN(C)C(=O)Nc1ncc(Oc2ccc(C#N)cc2F)s1` [Compound E189], the IC50 is 398 nM.

On to `C[C@H](O)CN(C)C(=O)Nc1ncc(Cc2ccc(F)cc2)s1` [Compound E130], for which the IC50 was 200 nM.

As to `C[C@@H](O)CN(C)C(=O)Nc1ncc(Cc2cccc(F)c2)s1` [Compound E100], the IC50 is 251 nM.

As to `CCN(C[C@H](C)O)C(=O)Nc1ncc(Oc2ccc(Cl)nc2)s1` [Compound E202], the IC50 is 200 nM.

For `CC(C)(O)C(=O)Nc1ncc(Cc2ccccc2F)s1` [Compound E005], the IC50 was 3980 nM.

For the compound `O=C(Nc1ncc(Cc2cccc(F)c2)s1)C1(CO)CC1` [Compound E029], the IC50 was 631 nM.

In the case of `CCN1CCC[C@@H]1C(=O)Nc1ncc(Oc2ccc(C#N)cc2)s1` [Compound E088, (2R)—N-[5-(4-cyanophenoxy)thiazol-2-yl]-1-ethyl-pyrrolidine-2-carboxamide], the IC50 is 3160 nM.

With `CCN(C[C@H](C)O)C(=O)Nc1ncc(Cc2cc(F)ccc2OC)s1` [Compound E139], the IC50 was 39.8 nM.
